The record followed here is paper PMC10058238 (Science Advances, 2023).

The structures appear in SMILES notation.

By IC50 is commonly meant the concentration at which inhibition is half-maximal. Lower therefore signals higher potency.

What all share (assay type): biochemical
Assay [1] deals with T1, AtSPT complex (LCB1, LCB2a, SPTssa) (Arabidopsis thaliana, UniProt Q94IB8+Q9LSZ9).
T1 construct: full-length codon-optimized cDNAs; N-terminal Flag on SPTssa, other chains untagged; HEK293F, GDN; without ORM1; with Serine palmitoyltransferase small subunit A
T1 sequence (Q9LSZ9 1-489): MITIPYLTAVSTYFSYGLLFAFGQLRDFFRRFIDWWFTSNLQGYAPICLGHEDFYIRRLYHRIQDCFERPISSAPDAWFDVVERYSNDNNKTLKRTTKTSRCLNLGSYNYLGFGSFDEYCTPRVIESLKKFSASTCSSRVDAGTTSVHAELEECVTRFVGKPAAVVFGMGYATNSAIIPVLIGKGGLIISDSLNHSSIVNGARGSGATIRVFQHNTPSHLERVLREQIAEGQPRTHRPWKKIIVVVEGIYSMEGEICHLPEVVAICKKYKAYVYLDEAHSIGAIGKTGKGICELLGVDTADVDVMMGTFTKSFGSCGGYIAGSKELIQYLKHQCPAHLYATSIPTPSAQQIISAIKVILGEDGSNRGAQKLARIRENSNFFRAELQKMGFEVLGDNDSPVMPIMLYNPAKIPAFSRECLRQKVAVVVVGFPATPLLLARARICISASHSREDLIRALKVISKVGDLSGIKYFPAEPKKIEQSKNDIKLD
T1 sequence (Q94IB8 1-482): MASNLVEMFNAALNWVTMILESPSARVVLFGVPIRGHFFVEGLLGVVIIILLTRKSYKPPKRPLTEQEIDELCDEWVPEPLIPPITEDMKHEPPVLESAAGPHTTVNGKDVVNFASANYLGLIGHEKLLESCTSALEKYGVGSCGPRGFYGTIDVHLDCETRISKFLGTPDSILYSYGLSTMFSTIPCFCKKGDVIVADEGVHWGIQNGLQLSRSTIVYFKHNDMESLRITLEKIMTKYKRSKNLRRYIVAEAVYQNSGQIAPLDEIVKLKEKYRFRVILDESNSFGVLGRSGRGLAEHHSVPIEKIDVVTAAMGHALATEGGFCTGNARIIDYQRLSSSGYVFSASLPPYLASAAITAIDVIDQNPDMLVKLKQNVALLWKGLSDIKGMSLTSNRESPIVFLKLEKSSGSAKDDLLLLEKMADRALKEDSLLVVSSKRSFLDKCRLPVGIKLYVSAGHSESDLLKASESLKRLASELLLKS
T1 sequence (A8MSB8 1-56 partner): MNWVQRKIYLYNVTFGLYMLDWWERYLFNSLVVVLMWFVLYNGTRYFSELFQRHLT
Kind of assay: SPT activity, DTNB detection of CoA-SH release, […] nm. The conditions noted are these: 100 mM L-serine, 100 μM palmitoyl-CoA, 25 μM PLP, pH 7.5, 30 °C; active site in LCB2a/LCB1.

For assay [2], the target named is T2, AtSPT-ORM1 complex (LCB1, LCB2a, SPTssa, ORM1) (Arabidopsis thaliana, UniProt Q94IB8+Q9C5I0+Q9LSZ9).
T2 construct: full-length codon-optimized cDNAs; N-terminal Flag on SPTssa, other chains untagged; HEK293F, GDN; dimer of 1:1:1:1 protomers; endogenous ceramide copurifies; with Long chain base biosynthesis protein 1; Serine palmitoyltransferase small subunit A
The description is as above. The conditions noted are these: 100 mM L-serine, 100 μM palmitoyl-CoA, 25 μM PLP, pH 7.5, 30 °C; active site in LCB2a/LCB1.

The target of assay [3] is T3, AtSPT-ORM1 complex (LCB1, LCB2a, SPTssa, ORM1) (Arabidopsis thaliana, UniProt Q94IB8+Q9C5I0+Q9LSZ9, Q9C5I0:DEL2-14).
T3 construct: full-length codon-optimized cDNAs; N-terminal Flag on SPTssa, other chains untagged; HEK293F, GDN; dimer of 1:1:1:1 protomers; endogenous ceramide copurifies; with Long chain base biosynthesis protein 1; Serine palmitoyltransferase small subunit A
Briefly: SPT activity, DTNB detection of CoA-SH release, […] nm; sigmoidal fit. The conditions noted are these: 100 mM L-serine, 25 μM PLP, pH 7.5, 30 °C; active site in LCB2a/LCB1.

The target in assay [4] is T4, AtSPT-ORM1 complex (LCB1, LCB2a, SPTssa, ORM1) (Arabidopsis thaliana, UniProt Q94IB8+Q9C5I0+Q9LSZ9, Q9C5I0:N17A).
T4 construct: full-length codon-optimized cDNAs; N-terminal Flag on SPTssa, other chains untagged; HEK293F, GDN; dimer of 1:1:1:1 protomers; endogenous ceramide copurifies; with Long chain base biosynthesis protein 1; Serine palmitoyltransferase small subunit A
The assay is described as above. The conditions noted are these: 100 mM L-serine, 25 μM PLP, pH 7.5, 30 °C; active site in LCB2a/LCB1.

Assay [5] addresses T5, AtSPT-ORM1 complex (LCB1, LCB2a, SPTssa, ORM1) (Arabidopsis thaliana, UniProt Q94IB8+Q9C5I0+Q9LSZ9, Q9C5I0:S67R).
T5 construct: full-length codon-optimized cDNAs; N-terminal Flag on SPTssa, other chains untagged; HEK293F, GDN; dimer of 1:1:1:1 protomers; endogenous ceramide copurifies; with Long chain base biosynthesis protein 1; Serine palmitoyltransferase small subunit A
Briefly: SPT activity, DTNB detection of CoA-SH release, […] nm.

Assay [6] addresses T6, AtSPT-ORM1 complex (LCB1, LCB2a, SPTssa, ORM1) (Arabidopsis thaliana, UniProt Q94IB8+Q9C5I0+Q9LSZ9, Q9C5I0:W88R).
T6 construct: full-length codon-optimized cDNAs; N-terminal Flag on SPTssa, other chains untagged; HEK293F, GDN; dimer of 1:1:1:1 protomers; endogenous ceramide copurifies; with Long chain base biosynthesis protein 1; Serine palmitoyltransferase small subunit A
The description is as above. The following applies: saturating 100 mM L-serine, 100 μM palmitoyl-CoA, 25 μM PLP, pH 7.5, 30 °C; ceramide site.

The target of assay [7] is T7, AtSPT-ORM1 complex (LCB1, LCB2a, SPTssa, ORM1) (Arabidopsis thaliana, UniProt Q94IB8+Q9C5I0+Q9LSZ9, Q9LSZ9:DEL2-5).
T7 construct: full-length codon-optimized cDNAs; N-terminal Flag on SPTssa, other chains untagged; HEK293F, GDN; dimer of 1:1:1:1 protomers; endogenous ceramide copurifies; with Long chain base biosynthesis protein 1; Serine palmitoyltransferase small subunit A
The assay is described as above.

In assay [8] the target is T4, AtSPT-ORM1 complex (LCB1, LCB2a, SPTssa, ORM1). The description is as above.
The target of assay [9] is T8, AtSPT-ORM1 complex (LCB1, LCB2a, SPTssa, ORM1) (Arabidopsis thaliana, UniProt Q94IB8+Q9C5I0+Q9LSZ9, Q9C5I0:DEL2-8).
T8 construct: full-length codon-optimized cDNAs; N-terminal Flag on SPTssa, other chains untagged; HEK293F, GDN; dimer of 1:1:1:1 protomers; endogenous ceramide copurifies; with Long chain base biosynthesis protein 1; Serine palmitoyltransferase small subunit A
The description is as above.

Assay [10] concerns the target T9, AtSPT-ORM1 complex (LCB1, LCB2a, SPTssa, ORM1) (Arabidopsis thaliana, UniProt Q94IB8+Q9C5I0+Q9LSZ9, Q9C5I0:N17A/Q9C5I0:S67R).
T9 construct: full-length codon-optimized cDNAs; N-terminal Flag on SPTssa, other chains untagged; HEK293F, GDN; dimer of 1:1:1:1 protomers; endogenous ceramide copurifies; with Long chain base biosynthesis protein 1; Serine palmitoyltransferase small subunit A
Described as above. The conditions noted are these: saturating 100 mM L-serine, 100 μM palmitoyl-CoA, 25 μM PLP, pH 7.5, 30 °C; ceramide site.

Assay [11] has as its target T10, AtSPT-ORM1 complex (LCB1, LCB2a, SPTssa, ORM1) (Arabidopsis thaliana, UniProt Q94IB8+Q9C5I0+Q9LSZ9, Q9C5I0:W20R).
T10 construct: full-length codon-optimized cDNAs; N-terminal Flag on SPTssa, other chains untagged; HEK293F, GDN; dimer of 1:1:1:1 protomers; endogenous ceramide copurifies; with Long chain base biosynthesis protein 1; Serine palmitoyltransferase small subunit A
The assay is described as above. The following applies: saturating 100 mM L-serine, 100 μM palmitoyl-CoA, 25 μM PLP, pH 7.5, 30 °C; ceramide site.

In assay [12] the target is T2, AtSPT-ORM1 complex (LCB1, LCB2a, SPTssa, ORM1). The description is as above.
Assay [13] concerns the target T3, AtSPT-ORM1 complex (LCB1, LCB2a, SPTssa, ORM1). The assay is described as above. The conditions noted are these: saturating 100 mM L-serine, 100 μM palmitoyl-CoA, 25 μM PLP, pH 7.5, 30 °C; ceramide site.

T2 sequence (Q9C5I0 1-157, one chain of several): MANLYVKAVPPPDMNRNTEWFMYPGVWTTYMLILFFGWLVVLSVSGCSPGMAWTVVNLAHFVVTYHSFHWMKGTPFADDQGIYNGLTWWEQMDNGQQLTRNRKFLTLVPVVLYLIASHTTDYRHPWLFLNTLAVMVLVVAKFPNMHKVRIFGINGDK
T4 sequence (Q9C5I0 1-157 N17A, one chain of several): as the sequence (Q9C5I0 1-157, one chain of several) above, with N17A counted along it
T3 sequence (Q9C5I0 entry or part of it DEL2-14, one chain of several): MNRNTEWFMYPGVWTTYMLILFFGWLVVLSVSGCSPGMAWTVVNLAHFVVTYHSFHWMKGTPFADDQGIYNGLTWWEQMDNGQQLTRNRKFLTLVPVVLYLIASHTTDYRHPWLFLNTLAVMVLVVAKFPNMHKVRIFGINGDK
T9 sequence (Q9C5I0 1-157 N17A/S67R, one chain of several): as the sequence (Q9C5I0 1-157, one chain of several) above, with N17A, S67R counted along it
T5 sequence (Q9C5I0 1-157 S67R, one chain of several): as the sequence (Q9C5I0 1-157, one chain of several) above, with S67R counted along it
T8 sequence (Q9C5I0 entry or part of it DEL2-8, one chain of several): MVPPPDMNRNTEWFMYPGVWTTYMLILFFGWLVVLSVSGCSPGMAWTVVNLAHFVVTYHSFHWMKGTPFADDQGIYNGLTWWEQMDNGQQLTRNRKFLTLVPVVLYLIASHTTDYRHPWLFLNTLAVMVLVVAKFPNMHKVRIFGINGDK
T10 sequence (Q9C5I0 1-157 W20R, one chain of several): as the sequence (Q9C5I0 1-157, one chain of several) above, with W20R counted along it
T6 sequence (Q9C5I0 1-157 W88R, one chain of several): as the sequence (Q9C5I0 1-157, one chain of several) above, with W88R counted along it
T7 sequence (Q9LSZ9 with tags, fused parts or gaps DEL2-5, one chain of several): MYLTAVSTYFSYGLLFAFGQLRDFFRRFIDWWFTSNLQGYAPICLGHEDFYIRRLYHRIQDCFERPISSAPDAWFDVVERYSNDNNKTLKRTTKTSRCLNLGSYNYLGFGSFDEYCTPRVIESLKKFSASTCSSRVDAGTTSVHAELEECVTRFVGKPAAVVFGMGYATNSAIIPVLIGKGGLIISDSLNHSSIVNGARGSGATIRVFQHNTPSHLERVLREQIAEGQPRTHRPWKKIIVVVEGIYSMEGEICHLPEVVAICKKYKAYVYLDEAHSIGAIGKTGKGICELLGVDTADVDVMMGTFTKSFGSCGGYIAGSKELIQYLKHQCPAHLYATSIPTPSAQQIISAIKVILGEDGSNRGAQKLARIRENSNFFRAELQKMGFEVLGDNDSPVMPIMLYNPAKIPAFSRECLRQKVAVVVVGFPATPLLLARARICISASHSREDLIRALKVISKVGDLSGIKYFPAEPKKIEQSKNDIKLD
T7 sequence (Q9C5I0 1-157, stated change not applied, one chain of several): as the sequence (Q9C5I0 1-157, one chain of several) above

Turning to `CCCCCCC(=O)CCCCCC/C=C/C[C@@H](O)[C@H](O)[C@@](N)(CO)C(=O)O` [myriocin], the “inhibition at 10 μM” value in assay [1] and in assay [2] was “can be repressed by a potent SPT-specific inhibitor myriocin” each time.
On to `CCCCCCCCCCCCCCCC(=O)SCCNC(=O)CCNC(=O)[C@H](O)C(C)(C)COP(=O)(O)OP(=O)(O)OC[C@H]1O[C@@H](n2cnc3c(N)ncnc32)[C@H](O)[C@@H]1OP(=O)(O)O` [palmitoyl-CoA], for which the Khalf result in assay [3] is “the Khalf value of the AtSPT-ORM1 (ORM1-ΔN14) variant toward palmitoyl-CoA was much lower”; in assay [4], “the Khalf value of the variant toward palmitoyl-CoA was nearly seven times as high”.
Regarding `CCCCCCCCCCCCCC[C@@H](O)[C@@H](O)[C@H](CO)NC(=O)CCCCC` [C6-phytoceramide], the IC50 in assay [5] worked out at 1.26 µM; in assay [7], 0.991 µM; in assay [8] it was 1.68 µM; in assay [9], 1.28 µM; in assay [12], 0.32 µM. Besides, the “SPT activity, DTNB detection of CoA-SH release, 412 nm” value in assay [6] is given as “ORM1-W20R or ORM1-W88R mutation also virtually abolished the inhibitory effect of C6-phytoceramide”; in assay [10], “ORM1-N17A/S67R double mutation nearly eliminated the inhibitory effect of C6-phytoceramide”; in assay [11] it was “ORM1-W20R or ORM1-W88R mutation also virtually abolished the inhibitory effect of C6-phytoceramide”; in assay [13], “basically eliminated the inhibitory effect of C6-phytoceramide”.
`CCCCCCCCCCCCC/C=C/[C@@H](O)[C@H](CO)NC(=O)CCCCC` [C6-ceramide]: in [12], the midpoint of inhibition, the IC50, lay at 3.5 µM. This lies in the single-digit micromolar range.
